In BindingDB's records for patent US20240270732 (Chengdu Biobel Biotechnology Co., 2024):
pIC50: −log10 of the molar value.

Target: T1, Receptor-interacting serine/threonine-protein kinase 1 (Homo sapiens, UniProt Q13546)
T1 sequence (Q13546 whole entry): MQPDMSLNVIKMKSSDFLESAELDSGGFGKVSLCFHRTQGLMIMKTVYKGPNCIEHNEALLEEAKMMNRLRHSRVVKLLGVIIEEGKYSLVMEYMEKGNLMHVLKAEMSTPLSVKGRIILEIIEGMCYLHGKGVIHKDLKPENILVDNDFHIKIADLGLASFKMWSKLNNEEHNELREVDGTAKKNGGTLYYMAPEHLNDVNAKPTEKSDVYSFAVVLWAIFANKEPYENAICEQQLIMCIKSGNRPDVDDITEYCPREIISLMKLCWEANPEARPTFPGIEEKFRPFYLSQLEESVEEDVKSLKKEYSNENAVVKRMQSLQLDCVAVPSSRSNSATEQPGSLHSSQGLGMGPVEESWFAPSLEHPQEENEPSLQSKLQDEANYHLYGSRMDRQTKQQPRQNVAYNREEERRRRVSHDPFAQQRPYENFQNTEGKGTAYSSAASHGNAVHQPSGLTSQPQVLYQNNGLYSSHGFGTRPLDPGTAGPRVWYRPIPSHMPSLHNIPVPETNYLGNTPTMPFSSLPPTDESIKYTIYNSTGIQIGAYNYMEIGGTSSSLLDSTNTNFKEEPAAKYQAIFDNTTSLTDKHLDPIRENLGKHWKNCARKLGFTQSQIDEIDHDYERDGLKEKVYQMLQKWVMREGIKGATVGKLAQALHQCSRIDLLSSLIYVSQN
Assay: Inhibitory Activity Assay
Procedure: The compound of the present invention and the control compound were dissolved in the assay buffer (50 mM Hepes pH 7.5, 50 mM NaCl, 30 mM MgCl2, 1 mM DTT, 0.02% CHAPS, 0.5 mg/mL BSA), and diluted in a ratio of 1:1.5 using a 22-point titration (high concentration 2 μM), and then added to a 384-well plate. […] After completion of the reaction, 5 μL of ADP-Glo reagent containing 0.02% CHAPS was added to each well and incubated at room temperature for 1 h to terminate the kinase reaction and use up all remaining ATP. Then, 5 μL of ADP-Glo detection solution containing 0.02% CHAPS was added to each well and incubated at room temperature for 30 min to measure the emittance intensity.

Row | Structure (SMILES) | pIC50
1 | C[C@H]1Oc2ccc(C#CCCCCC#Cc3ccc4c(c3)N(C)C(=O)[C@@H](NC(=O)c3n[nH]c(Cc5ccccc5)n3)[C@@H](C)O4)cc2N(C)C(=O)[C@H]1NC(=O)c1n[nH]c(Cc2ccccc2)n1 [US20240270732, Compound I-79] | 7.98
2 | C[C@H]1Oc2ccc(C#CCOCCOCCOCCOCCOCC#Cc3ccc4c(c3)N(C)C(=O)[C@@H](NC(=O)c3ncn(Cc5ccccc5)n3)[C@@H](C)O4)cc2N(C)C(=O)[C@H]1NC(=O)c1ncn(Cc2ccccc2)n1 [US20240270732, Compound I-84-1] | 8.05
3 | C[C@H]1Oc2ccc(C#CCN3CCN(CC#CC#CCN4CCN(CC#Cc5ccc6c(c5)N(C)C(=O)[C@@H](NC(=O)c5n[nH]c(Cc7ccccc7)n5)[C@@H](C)O6)CC4)CC3)cc2N(C)C(=O)[C@H]1NC(=O)c1n[nH]c(Cc2ccccc2)n1 [US20240270732, Compound I-91] | 8.36
4 | C[C@H]1Oc2ccc(C#CCN3CCN(CC#CC#CCN4CCN(CC#Cc5ccc6c(c5)N(C)C(=O)[C@@H](NC(=O)c5ncn(Cc7ccccc7)n5)[C@@H](C)O6)CC4)CC3)cc2N(C)C(=O)[C@H]1NC(=O)c1ncn(Cc2ccccc2)n1 [US20240270732, Compound I-93] | 8.24
5 | C[C@H]1Oc2ccc(C#CCCCN(C)CCCC#Cc3ccc4c(c3)N(C)C(=O)[C@@H](NC(=O)c3n[nH]c(Cc5ccccc5)n3)[C@@H](C)O4)cc2N(C)C(=O)[C@H]1NC(=O)c1n[nH]c(Cc2ccccc2)n1 [US20240270732, Compound I-95] | 7.70
6 | CN(CCCC#Cc1ccc2c(c1)N(C)C(=O)[C@@H](NC(=O)c1n[nH]c(Cc3ccccc3)n1)CO2)CCCC#Cc1ccc2c(c1)N(C)C(=O)[C@@H](NC(=O)c1n[nH]c(Cc3ccccc3)n1)CO2 [US20240270732, Compound I-96] | 7.73
7 | C[C@H]1Oc2ccc(C#CCCCN(C)CCCC#Cc3ccc4c(c3)N(C)C(=O)[C@@H](NC(=O)c3ncn(Cc5ccccc5)n3)[C@@H](C)O4)cc2N(C)C(=O)[C@H]1NC(=O)c1ncn(Cc2ccccc2)n1 [US20240270732, Compound I-97] | 7.74
8 | CN(CCCC#Cc1ccc2c(c1)N(C)C(=O)[C@@H](NC(=O)c1ncn(Cc3ccccc3)n1)CO2)CCCC#Cc1ccc2c(c1)N(C)C(=O)[C@@H](NC(=O)c1ncn(Cc3ccccc3)n1)CO2 [US20240270732, Compound I-98] | 7.77
9 | COCCOCCOCCOCCOCC#Cc1ccc2c(c1)N(C)C(=O)[C@@H](NC(=O)c1n[nH]c(Cc3ccccc3)n1)[C@@H](C)O2 [US20240270732, Compound I-99] | 8.62
10 | CC(O)C#Cc1ccc2c(c1)N(C)C(=O)[C@@H](NC(=O)c1n[nH]c(Cc3ccccc3)n1)[C@@H](C)O2 (stereo partly drawn) [US20240270732, Compound I-103] | 7.99
11 | C[C@H]1Oc2ccc(C#CCCCCC(=O)O)cc2N(C)C(=O)[C@H]1NC(=O)c1n[nH]c(Cc2ccccc2)n1 [US20240270732, Compound I-107] | 7.70
12 | C[C@H]1Oc2ccc(C#CCCCCC(=O)O)cc2N(C)C(=O)[C@H]1NC(=O)c1ncn(Cc2ccccc2)n1 [US20240270732, Compound I-108] | 7.69
13 | C[C@H]1Oc2ccc(C#Cc3cccc(S(=O)(=O)O)c3)cc2N(C)C(=O)[C@H]1NC(=O)c1n[nH]c(Cc2ccccc2)n1 [US20240270732, Compound I-113] | 8.03
14 | C[C@H]1Oc2ccc(C#Cc3cccc(S(=O)(=O)O)c3)cc2N(C)C(=O)[C@H]1NC(=O)c1ncn(Cc2ccccc2)n1 [US20240270732, Compound I-114] | 7.93
15 | C[C@H]1Oc2ccc(C#Cc3cccc(N)c3)cc2N(C)C(=O)[C@H]1NC(=O)c1ncn(Cc2ccccc2)n1 [US20240270732, Compound I-118] | 7.86
16 | C#Cc1ccc2c(c1)N(C)C(=O)[C@@H](NC(=O)c1nc(Cc3ccccc3)n[nH]1)[C@@H](C)O2 [US20240270732, Compound I-119] | 8.01
17 | C#Cc1ccc2c(c1)N(C)C(=O)[C@@H](NC(=O)c1ncn(Cc3ccccc3)n1)[C@@H](C)O2 [US20240270732, Compound I-120] | 7.97

Next, values leading:

Row | pIC50 | Structure (SMILES)
18 | 8.18 | CN1C(=O)[C@@H](NC(=O)c2n[nH]c(Cc3ccccc3)n2)COc2ccc(C#CCOCCOCCOCCOCCOCC#Cc3ccc4c(c3)N(C)C(=O)[C@@H](NC(=O)c3n[nH]c(Cc5ccccc5)n3)CO4)cc21 [US20240270732, Compound I-82-1]
19 | 8.15 | C#CCOCCOCCOCCOCCOCC#Cc1ccc2c(c1)N(C)C(=O)[C@@H](NC(=O)c1n[nH]c(Cc3ccccc3)n1)CO2 [US20240270732, Compound I-82-2]
20 | 8.09 | C[C@H]1Oc2ccc(C#CCOCCOCCOCCOCCOCC#Cc3ccc4c(c3)N(C)C(=O)[C@@H](NC(=O)c3n[nH]c(Cc5ccccc5)n3)CO4)cc2N(C)C(=O)[C@H]1NC(=O)c1n[nH]c(Cc2ccccc2)n1 [US20240270732, Compound I-83]
21 | 8.10 | C#CCOCCOCCOCCOCCOCC#Cc1ccc2c(c1)N(C)C(=O)[C@@H](NC(=O)c1ncn(Cc3ccccc3)n1)[C@@H](C)O2 [US20240270732, Compound I-84-2]
22 | 8.13 | CN1C(=O)[C@@H](NC(=O)c2ncn(Cc3ccccc3)n2)COc2ccc(C#CCOCCOCCOCCOCCOCC#Cc3ccc4c(c3)N(C)C(=O)[C@@H](NC(=O)c3ncn(Cc5ccccc5)n3)CO4)cc21 [US20240270732, Compound I-85-1]
23 | 8.18 | C#CCOCCOCCOCCOCCOCC#Cc1ccc2c(c1)N(C)C(=O)[C@@H](NC(=O)c1ncn(Cc3ccccc3)n1)CO2 [US20240270732, Compound I-85-2]
24 | 8.10 | C[C@H]1Oc2ccc(C#CCOCCOCCOCCOCCOCC#Cc3ccc4c(c3)N(C)C(=O)[C@@H](NC(=O)c3ncn(Cc5ccccc5)n3)CO4)cc2N(C)C(=O)[C@H]1NC(=O)c1ncn(Cc2ccccc2)n1 [US20240270732, Compound I-86]
25 | 8.20 | C[C@H]1Oc2ccc(C#CCOCCOCCOCCOCCOCC#CC#CCOCCOCCOCCOCCOCC#Cc3ccc4c(c3)N(C)C(=O)[C@@H](NC(=O)c3n[nH]c(Cc5ccccc5)n3)[C@@H](C)O4)cc2N(C)C(=O)[C@H]1NC(=O)c1n[nH]c(Cc2ccccc2)n1 [US20240270732, Compound I-87]
26 | 8.18 | CN1C(=O)[C@@H](NC(=O)c2n[nH]c(Cc3ccccc3)n2)COc2ccc(C#CCOCCOCCOCCOCCOCC#CC#CCOCCOCCOCCOCCOCC#Cc3ccc4c(c3)N(C)C(=O)[C@@H](NC(=O)c3n[nH]c(Cc5ccccc5)n3)CO4)cc21 [US20240270732, Compound I-88]
27 | 8.23 | CN1C(=O)[C@@H](NC(=O)c2n[nH]c(Cc3ccccc3)n2)COc2ccc(C#CCN3CCN(CC#CC#CCN4CCN(CC#Cc5ccc6c(c5)N(C)C(=O)[C@@H](NC(=O)c5n[nH]c(Cc7ccccc7)n5)CO6)CC4)CC3)cc21 [US20240270732, Compound I-92]
28 | 8.21 | CN1C(=O)[C@@H](NC(=O)c2ncn(Cc3ccccc3)n2)COc2ccc(C#CCN3CCN(CC#CC#CCN4CCN(CC#Cc5ccc6c(c5)N(C)C(=O)[C@@H](NC(=O)c5ncn(Cc7ccccc7)n5)CO6)CC4)CC3)cc21 [US20240270732, Compound I-94]
29 | 8.83 | COCCOCCOCCOCCOCC#Cc1ccc2c(c1)N(C)C(=O)[C@@H](NC(=O)c1n[nH]c(Cc3ccccc3)n1)CO2 [US20240270732, Compound I-100]
30 | 8.60 | COCCOCCOCCOCCOCC#Cc1ccc2c(c1)N(C)C(=O)[C@@H](NC(=O)c1ncn(Cc3ccccc3)n1)[C@@H](C)O2 [US20240270732, Compound I-101]
31 | 8.73 | COCCOCCOCCOCCOCC#Cc1ccc2c(c1)N(C)C(=O)[C@@H](NC(=O)c1ncn(Cc3ccccc3)n1)CO2 [US20240270732, Compound I-102]
32 | 8.31 | C[C@H]1Oc2ccc(C#CCCO)cc2N(C)C(=O)[C@H]1NC(=O)c1n[nH]c(Cc2ccccc2)n1 [US20240270732, Compound I-105]
33 | 8.19 | C[C@H]1Oc2ccc(C#CCCO)cc2N(C)C(=O)[C@H]1NC(=O)c1ncn(Cc2ccccc2)n1 [US20240270732, Compound I-106]
34 | 8.37 | C[C@H]1Oc2ccc(C#Cc3ccncc3)cc2N(C)C(=O)[C@H]1NC(=O)c1n[nH]c(Cc2ccccc2)n1 [US20240270732, Compound I-109]
35 | 8.33 | C[C@H]1Oc2ccc(C#Cc3ccncc3)cc2N(C)C(=O)[C@H]1NC(=O)c1ncn(Cc2ccccc2)n1 [US20240270732, Compound I-110]
36 | 8.17 | C[C@H]1Oc2ccc(C#Cc3cccnc3)cc2N(C)C(=O)[C@H]1NC(=O)c1n[nH]c(Cc2ccccc2)n1 [US20240270732, Compound I-111]
37 | 8.13 | C[C@H]1Oc2ccc(C#Cc3cccc([N+](=O)[O-])c3)cc2N(C)C(=O)[C@H]1NC(=O)c1n[nH]c(Cc2ccccc2)n1 [US20240270732, Compound I-115]
38 | 8.10 | C[C@H]1Oc2ccc(C#Cc3cccc([N+](=O)[O-])c3)cc2N(C)C(=O)[C@H]1NC(=O)c1ncn(Cc2ccccc2)n1 [US20240270732, Compound I-116]
